Reference: patent US6951727B2, “Methods and reagents for quantitation of cell-surface molecule expression on peripheral blood cells” (Becton Dickinson and Company, priority 1998, dated 2005)
“Also recorded” adds a separate entry of the source. Where two headings read alike, the source gives them in different places.

Legend:
[1] = system: HLA-DR on CD14+ peripheral blood monocytes; assay: Stabilization of HLA-DR-specific fluorescent signal during anti-HLA-DR antibody staining of whole blood, flow cytometry; assay type: cell-based, human
Method: Peripheral blood samples were drawn from normal volunteers.
The time-dependence of the HLA-DR-specific signal detectable by flow cytometry of antibody-stained peripheral blood monocytes was assessed by varying the duration of antibody staining.
The effect of various additives on the stability of HLA-DR-specific fluorescence intensity was tested by including these reagents during the staining step.
Incubation was at room temperature for the times indicated, after which 1 ml of 1× FACS™ Lysing Solution was added and incubation continued for 10 minutes.
Following erythrocyte lysis, the samples were centrifuged at 250×g for 5 minutes, the supernatant removed, the pellet resuspended in 2 ml of PBS+0.5% BSA and recentrifuged. The final pellet was suspended in 0.5 ml of PBS+BSA and analyzed by flow cytometry, as above. Results are plotted in FIG. 2A.
A second experiment, reported in FIG. 2B, was performed similarly, but omitting the post-lysis wash step: following erythrocyte lysis, the samples were centrifuged at 250×g for 5 minutes, the supernatant, containing lysis debris, removed, and the pellet resuspended directly in 0.5 ml of PBS+0.5% BSA. Again, flow cytometric acquisition of at least 2000 monocyte events was performed, and the PE fluorescence intensity of the monocyte population plotted.
To test whether Brefeldin A and monensin would similarly stabilize HLA-DR expression in the flow cytometric assay, an additional series of experiments was performed.
To 50 μl EDTA-anticoagulated whole blood was added 10 μl staining reagent (500 ng of HLA-DR-PE and 63 ng CD14-PerCP/CY5.5 in buffered saline containing gelatin and 0.1% sodium azide); the staining reagent further included the additives noted below. Samples were incubated with staining reagent for the times indicated, after which 1 ml of 1× FACS™ Lysing Solution was added. After incubation with lysing solution for 9.5 to 11.5 minutes, samples were directly analyzed using a FACSCalibur™ brand flow cytometer (BDIS, San Jose, Calif.).
Additives to the staining composition for this latter series of experiments, reported in FIG. 2C, were: (A) nothing (“Control”); (B) 18 mM chloroquine; (C) 0.2 mM Brefeldin A; and (D) 0.013 mM monensin. Final concentrations of additives after 1:6 dilution during staining were: (B) 3 mM chloroquine; (C) 0.034 mM Brefeldin A; and (D) 0.0022mM monensin. […] 212:89-98 (1998).
The data presented in FIG. 2C were acquired immediately after lysis; in contrast to experiments the results of which are presented in FIG. 1, the removal of lysis debris (by centrifugation and aspiration, optionally followed by wash) was omitted.
A further experiment was performed to determine the minimum concentration of chloroquine needed to effect stabilization of HLA-DR expression on the surface of monocytes.
An aliquot of 50 μl peripheral blood was drawn from a healthy volunteer and mixed with 10 μl HLA-DR quantitation reagent (50 μg/ml HLA-DR PE, 6.3 μg/ml CD14 PerCP-Cy5.5, in 10 mM sodium pyrophosphate, 0.15 M NaCl, pH 8). The HLA-DR quantitation reagent further contained chloroquine at 0 mM (control), 6 mM, 12 mM, or 18 mM.
In each experiment, 4 blood samples were stained for each chloroquine level, with one each of the samples stained for 20, 40, 60 or 80 minutes.
At the end of the staining period, the samples were lysed with 1× FACS™ Lysing Solution (BDIS) and analyzed on a FACScalibur Flow Cytometer. Five hundred monocyte events were collected.

[2] = system: CD11b on human blood cells; assay: Stabilization of CD11b-specific fluorescent signal during antibody staining of whole blood, flow cytometry; assay type: cell-based; settings: 3 mM final concentration, whole blood of three normal donors
Method: Blood from three normal adult donors was collected in standard EDTA Vacutainer® tubes and placed directly on ice. Fifty (50) μl of whole blood was transferred to a tube containing 20 μl of a cocktail of CD11b PE and CD45 PerCP antibodies with or without chloroquine, with the chloroquine-containing tubes having a final chloroquine concentration of 3 mM. Blood was stained for the indicated time at room temperature before addition of 1.0 ml FACS lysing reagent (1×). Flow cytometric analysis was performed essentially as described in Examples 1 and 2.

[3] = system: monocyte HLA-DR expression; settings: cited from earlier work
[4] = additive during staining, final concentration 3 mM chloroquine, 0.1% azide, 0.034 mM Brefeldin A, 0.0022 mM monensin, 10-15 to 60 min incubation

C[C@H]1CCC/C=C/[C@@H]2C[C@H](O)C[C@H]2[C@H](O)/C=C/C(=O)O1 [Brefeldin A]
stabilization of HLA-DR fluorescence signal over incubation time [1, 4]: no significant stabilization

CCN(CC)CCCC(C)Nc1ccnc2cc(Cl)ccc12 (stereo not shown) [chloroquine]
minimum concentration needed to effect HLA-DR stabilization [1]: 2 mM | stabilization of HLA-DR expression at 1 mM [1]: insufficient to effect stabilization | stabilization of HLA-DR fluorescence signal over incubation time [1]: reliably stabilized HLA-DR fluorescence; also recorded: stabilizes the HLA-DR fluorescence signal | stabilization of CD11b fluorescent signal over staining time [2]: can similarly be stabilized

CCN(CCO)CCCC(C)Nc1ccnc2cc(Cl)ccc12 (stereo not shown) [hydroxychloroquine]
stabilizing HLA-DR signal compared with chloroquine ([1]; experiments not shown): equally effective

CC[C@@]1([C@@H]2O[C@@H]([C@H]3O[C@@](O)(CO)[C@H](C)C[C@@H]3C)C[C@@H]2C)CC[C@H]([C@]2(C)CC[C@]3(C[C@H](O)[C@@H](C)[C@@H]([C@@H](C)[C@@H](OC)[C@H](C)C(=O)O)O3)O2)O1 [monensin]
stabilization of HLA-DR fluorescence signal over incubation time [1, 4]: no significant stabilization

Gamma interferon: proinflammatory cytokine, major activator of monocytes
patients showing an increase in monocyte HLA-DR expression within 1 day of treatment ([3]; of 10 septic patients with fewer than 30% HLA-DR positive monocytes): 8 | patients responding within 2 to 3 days ([3]; of 10 septic patients): 2 | TNFα and IL-6 plasma levels during treatment ([3]; septic patients): significant increase
